Data as given in US12263171B2, “7-, 8-, and 10-substituted amino triazolo quinazoline derivatives as adenosine receptor antagonists, pharmaceutical compositions and their use” (Merck Sharp & Dohme LLC, priority 2018, dated 2025).
pIC50: −log10 of the molar value.

What was measured:
[1] = biological target: human A2b adenosine receptor (Homo sapiens (Human), UniProt P29275); assay: A2b radioligand filtration binding assay (tritiated proprietary A2b antagonist, HEK293 membranes); conditions: for pIC50: unstarred values: radioligand binding; for A2B binding % inh. @ 10000 nM: unstarred
Procedure: Measurement of A2b Binding Affinity
The reported affinity of the compounds of the invention for the human A2b adenosine receptor was determined experimentally using a radioligand filtration binding assay. This assay measures the amount of binding of a tritiated proprietary A2b receptor antagonist, in the presence and absence of a compound of the invention, to membranes made from HEK293 cells recombinantly expressing the human A2b adenosine receptor (Perkin Elmer, Cat. No. ES-013-C).
The filter plate was incubated for at least 1 hour at 55° C. and allowed to dry. The bottom of the filter plate was then sealed with backing tape. […] The plates were then incubated for at least 20 minutes, and then the amount of radioactivity remaining in each well was determined using a TopCount® (Perkin Elmer) scintillation counter. After normalization to total and non-specific binding, the percent effect at each compound concentration was calculated. The plot of percent effect versus the log of compound concentration was analyzed electronically using a 4-parameter logistic fit based on the Levenberg-Marquardt algorithm to generate IC50 values.

[2] = biological target: human A2a adenosine receptor (Homo sapiens (Human), UniProt P29274); assay: A2a receptor affinity radioligand binding assay ([3H] SCH58261, membranes from HEK293 or CHO cells); conditions: for pIC50: unstarred values: radioligand binding
Procedure: The A2a receptor affinity binding assay measured the amount of binding of a tritiated ligand with high affinity for the A2a adenosine receptor to membranes made from HEK293 or CHO cells recombinantly expressing the human A2a adenosine receptor, in the presence of varying concentrations of a compound of the invention.
Measurement of A2a Binding Affinity Using Radioligand Binding
148 μL, (5 μg/mL) membranes (Perkin Elmer, Cat. No. RBHA2aM4001A) and 2 μL compounds of the invention to be tested (test compound) were transferred to individual wells of a 96-well polypropylene assay plate and incubated for 15 to 30 minutes at room temperature. [^3H] SCH58261 ((7-(2-phenylethyl)-5-amino-2-(2-furyl)-pyrazolo-[4,3-e]-1,2,4-triazolo[1,5-c]pyrimidine)) was diluted in assay buffer (50 mM Tris pH 7.4, 10 mM MgCl2, 0.005% Tween20) to a concentration of 4 nM and 50 μL transferred to each well of the assay plate. […] The assay plate was incubated at room temperature for 60 minutes with agitation. […] Filtering was achieved by aspirating the contents of the assay plate for 5 seconds, then washing and aspirating the contents three times with ice-cooled wash buffer (50 mM Tris-HCl pH 7.4, 150 mM NaCl) and allowing the vacuum manifold to dry the plate for 30 seconds. The filter plate was incubated for at least 1 hour at 55° C. and allowed to dry. The bottom of the filter plate was sealed with backing tape. 40 μL. […] The plate was incubated for at least 20 minutes, and then the amount of radioactivity remaining in each well was determined using a TopCown® (Perkin Elmer) scintillation counter. After normalization to total and non-specific binding, the percent effect at each compound concentration was calculated. The plot of percent effect versus the log of compound concentration was analyzed electronically using a 4-parameter logistic fit based on the Levenberg-Marquardt algorithm to generate IC50 values.

Chain of human A2a adenosine receptor (P29274 whole entry): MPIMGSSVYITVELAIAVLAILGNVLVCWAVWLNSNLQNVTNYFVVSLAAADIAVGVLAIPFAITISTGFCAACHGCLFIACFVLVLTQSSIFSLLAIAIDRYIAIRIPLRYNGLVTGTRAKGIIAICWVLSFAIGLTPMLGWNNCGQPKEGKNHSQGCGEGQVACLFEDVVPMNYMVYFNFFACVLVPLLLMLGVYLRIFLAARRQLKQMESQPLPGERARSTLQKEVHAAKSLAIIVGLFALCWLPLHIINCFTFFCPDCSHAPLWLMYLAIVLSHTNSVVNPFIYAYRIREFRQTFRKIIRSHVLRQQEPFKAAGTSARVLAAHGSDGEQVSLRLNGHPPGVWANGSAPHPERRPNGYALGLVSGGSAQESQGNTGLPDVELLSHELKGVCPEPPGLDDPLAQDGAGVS
Chain of human A2b adenosine receptor (P29275 whole entry): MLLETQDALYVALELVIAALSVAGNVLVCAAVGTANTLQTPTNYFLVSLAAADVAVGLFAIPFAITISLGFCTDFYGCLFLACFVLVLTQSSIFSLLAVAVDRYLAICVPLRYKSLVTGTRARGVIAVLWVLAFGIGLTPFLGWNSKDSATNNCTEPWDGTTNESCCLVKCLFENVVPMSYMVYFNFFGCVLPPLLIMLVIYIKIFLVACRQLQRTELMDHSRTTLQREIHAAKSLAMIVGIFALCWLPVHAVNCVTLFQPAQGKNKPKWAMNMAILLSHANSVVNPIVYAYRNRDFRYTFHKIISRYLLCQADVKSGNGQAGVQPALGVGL

`Cn1cc(N2CCCC(c3nc4c5ccc(F)cc5nc(N)n4n3)C2)cn1` (single isomer, unassigned) [Example 168, (R or S)-8-fluoro-2-(1-(1-methyl-1H-pyrazol-4-yl)piperidin-3-yl)-[1,2,4]triazolo[1,5-c]quinazolin-5-amine] gave a pIC50 [1] of 6.82 and a pIC50 [2] of 7.76.

`Cn1cc(N2CCCC(c3nc4c5c(Cl)ccc(Cl)c5nc(N)n4n3)C2)cn1` (single isomer, unassigned) [Example 169, (R or S)-7, 10-dichloro-2-(1-(1-methyl-1H-pyrazol-4-yl)piperidin-3-yl)-[1,2,4]triazolo[1,5-c]quinazolin-5-amine] gave a pIC50 [1] of 5.38 and a pIC50 [2] of 8.11.

`Cn1cc(N2CCCC(c3nc4c5c(C(F)(F)F)cccc5nc(N)n4n3)C2)cn1` (single isomer, unassigned) [Example 170, (R or S)-2-(1-(1-methyl-1H-pyrazol-4-yl)piperidin-3-yl)-10-(trifluoromethyl)-[1,2,4]triazolo[1,5-c]quinazolin-5-amine] was tested, and the “A2B binding % inh. @ 10000 nM” value [1] was 28% inh. @ 10000 nM and the pIC50 [2] was 6.69.

For `Cc1cccc2c1nc(N)n1nc(C3CCCN(c4cnn(C)c4)C3)nc21` (single isomer, unassigned) [Example 171, (R or S)-7-methyl-2-(1-(1-methyl-1H-pyrazol-4-yl)piperidin-3-yl)-[1,2,4]triazolo[1,5-c]quinazolin-5-amine], the pIC50 [1] was 6.02 and the pIC50 [2] was 7.46.

Work on `Cn1cc(N2CCCC(c3nc4c5c(F)ccc(F)c5nc(N)n4n3)C2)cn1` (single isomer, unassigned) [Example 172, (R or S)-7,10-difluoro-2-(1-(1-methyl-1H-pyrazol-4-yl)piperidin-3-yl)-[1,2,4]triazolo[1,5-c]quinazolin-5-amine] yielded a pIC50 [1] of 6.43 and a pIC50 [2] of 7.47.

For `COc1c(Cl)ccc2c1nc(N)n1nc(C3CCCN(c4cnn(C)c4)C3)nc21` (single isomer, unassigned) [Example 173, (R or S)-8-chloro-7-methoxy-2-(1-(1-methyl-1H-pyrazol-4-yl)piperidin-3-yl)-[1,2,4]triazolo[1,5-c]quinazolin-5-amine], the pIC50 [1] was 6.39 and the pIC50 [2] was 8.44.

`Cn1cc(N2CCCC(c3nc4c5ccc(C(F)(F)F)cc5nc(N)n4n3)C2)cn1` (single isomer, unassigned) [Example 174, (R or S)-2-(1-(1-methyl-1H-pyrazol-4-yl)piperidin-3-yl)-8-(trifluoromethyl)-[1,2,4]triazolo[1,5-c]quinazolin-5-amine] gave a pIC50 [1] of 6.32 and a pIC50 [2] of 7.35.

Work on `COc1ccc2c(c1)nc(N)n1nc([C@@H]3C[C@H](C)CN(c4cnn(CC(C)(C)O)c4)C3)nc21` (single isomer, unassigned) [Example 195D] yielded a pIC50 [1] of 7.07 and a pIC50 [2] of 9.10.

Compound `C[C@H]1CC[C@@H](c2nc3c4ccc(Br)cc4nc(N)n3n2)CN1c1cnn(CC(C)(C)O)c1` (single isomer, unassigned) [Example 198, 1-(4-((2S,5R or 2R,5S)-5-(5-amino-8-bromo-[1,2,4]triazolo[1,5-c]quinazolin-2-yl)-2-methylpiperidin-1-yl)-4H-pyrazol-1-yl)-2-methylpropan-2-ol] has a pIC50 [1] of 8.08 and a pIC50 [2] of 9.40.

`Cc1ccc2c(c1)nc(N)n1nc(C3CCCN(c4cnn(C)c4)C3)nc21` (single isomer, unassigned) [Example 199, (R or S)-8-methyl-2-(1-(1-methyl-1H-pyrazol-4-yl)piperidin-3-yl)-[1,2,4]triazolo[1,5-c]quinazolin-5-amine] was tested, and the pIC50 [1] was 6.59 and the pIC50 [2] was 7.65.

Compound `Cn1cc(N2CCCC(c3nc4c5ccc(Cl)cc5nc(N)n4n3)C2)cn1` (single isomer, unassigned) [Example 200, (R or S)-8-chloro-2-(1-(1-methyl-1H-pyrazol-4-yl)piperidin-3-yl)-[1,2,4]triazolo[1,5-c]quinazolin-5-amine] has a pIC50 [1] of 6.82 and a pIC50 [2] of 7.93.

For `C[C@H]1CC[C@@H](c2nc3c4ccc(C5CC5)cc4nc(N)n3n2)CN1c1cnn(CC(C)(C)O)c1` (single isomer, unassigned) [Example 205, 1-(4-((2S, 5R or 2R,5S)-5-(5-amino-8-cyclopropyl-[1,2,4]triazolo[1,5-c]quinazolin-2-yl)-2-methylpiperidin-1-yl)-1H-pyrazol-1-yl)-2-methylpropan-2-ol], the pIC50 [1] was 8.26 and the pIC50 [2] was 9.40.

`Cc1ccc2c(c1)nc(N)n1nc([C@@H]3CC[C@H](C)N(c4cnn(CC(C)(C)O)c4)C3)nc21` (single isomer, unassigned) [Example 206, 1-(4-((2S, 5R or 2R,5S)-5-5-amino-8-methyl-[1,2,4]triazolo[1,5-c]quinazolin-2-yl)-2-methylpiperidin-1-yl)-1H-pyrazol-1-yl)-2-methylpropan-2-ol] showed a pIC50 [1] of 7.68 and a pIC50 [2] of 9.52.

With `C[C@H]1CC[C@@H](c2nc3c4ccc(C5CNC5)cc4nc(N)n3n2)CN1c1cnn(CC(C)(C)O)c1` (single isomer, unassigned) [Example 208, 1-(4-((2S,5R or 2R,5S)-5-(5-amino-8-(azetidin-3-yl)-[1,2,4]triazolo[1,5-c]quinazolin-2-yl)-2-methylpiperidin-1-yl)-1H-pyrazol-1-yl)-2-methylpropan-2-ol] the “A2B binding % inh. @ 10000 nM” value [1] was 5% inh. @ 10000 nM and the “A2A binding % inh. @ 10000 nM” value ([2]; @ 10000 nM, unstarred) was 10% inh @ 10000 nM % inh.

`COc1ccc2c(c1)nc(N)n1nc([C@@H]3CC[C@H](C)N(c4cnn(C5CCC[C@@H]5O)c4)C3)nc21` (single isomer, unassigned) [Example 210B] showed a pIC50 [1] of 8.49 and a pIC50 [2] of 10.00.

`COc1cccc2c1nc(N)n1nc([C@@H]3CCCN(c4cnn(CC(F)(F)F)c4)C3)nc21` [Example 9, (R)-7-methoxy-2-(1-(1-(2,2,2-trifluoroethyl)-1H-pyrazol-4-yl)piperidin-3-yl)-[1,2,4]triazolo[1,5-c]quinazolin-5-amine] was tested, and the pIC50 [1] was 9.00 and the pIC50 [2] was 9.15.

Compound `COc1cccc2c1nc(N)n1nc([C@@H]3CCCN(c4cnn(C)c4)C3)nc21` [Example 17, (R)-7-methoxy-2-(1-(1-methyl-1H-pyrazol-4-yl)piperidin-3-yl)-[1,2,4]triazolo[1,5-c]quinazolin-5-amine] has a pIC50 [1] of 7.61 and a pIC50 [2] of 9.00.

For `COc1cccc2c1nc(N)n1nc([C@@H]3CCCN(c4cnn(C5(C)CC5)c4)C3)nc21` [Example 20, (R)-7-methoxy-2-(1-(1-(1-methylcyclopropyl)-1H-pyrazol-4-yl)piperidin-3-yl)-[1,2,4]triazolo[1,5-c]quinazolin-5-amine], the pIC50 [1] was 7.35 and the pIC50 [2] was 9.30.

`COc1cccc2c1nc(N)n1nc([C@@H]3CCCN(c4cnn(C5CCOCC5)c4)C3)nc21` [Example 21, (R)-7-methoxy-2-(1-(1-(tetrahydro-2H-pyran-4-yl)-1H-pyrazol-4-yl)piperidin-3-yl)-[1,2,4]triazolo[1,5-c]quinazolin-5-amine] gave a pIC50 [1] of 6.96 and a pIC50 [2] of 9.22.

`COc1cccc2c1nc(N)n1nc([C@@H]3CCCN(c4cnn(CC5(O)CCC5)c4)C3)nc21` [Example 23, (R)-1-((4-(3-(5-amino-7-methoxy-[1,2,4]-triazolo[1,5-c]quinazolin-2-yl)piperidin-1-yl)-1H-pyrazol-1-yl)methyl)cyclobutan-1-ol] showed a pIC50 [1] of 7.19 and a pIC50 [2] of 9.00.

With `COc1cccc2c1nc(N)n1nc([C@@H]3CCCN(c4cnn([C@H]5CCCC[C@H]5O)c4)C3)nc21` [Example 24, (1R,2S)-2-(4-((R)-3-(5-amino-7-methoxy-[1,2,4]triazolo[1,5-c]quinazolin-2-yl)piperidin-1-yl)-1H-pyrazol-1-yl)cyclohexan-1-ol] the pIC50 [1] was 8.16 and the pIC50 [2] was 8.54.

`COc1cccc2c1nc(N)n1nc([C@@H]3CCCN(c4cnn([C@@H]5CCCC[C@@H]5O)c4)C3)nc21` [Example 25] was tested, and the pIC50 [1] was 8.24 and the pIC50 [2] was 8.64.

Compound `CNC(=O)C(C)(C)n1cc(N2CCC[C@@H](c3nc4c5cccc(OC)c5nc(N)n4n3)C2)cn1` [Example 26, (R)-2-(4-(3-(5-annino-7-methoxy-[1,2,4]triazolo[1,5-c]quinazolin-2-yl)piperidin-1-yl)-1H-pyrazol-1-yl)-N,2-dimethylpropanamide] has a pIC50 [1] of 8.70 and a pIC50 [2] of 8.46.
